Results published in US20220151989A1, “LIPOIC ACID PRODRUG” (SANTEN PHARMACEUTICAL CO., LTD., priority 2019, published 2022).

Key:
lens elasticity [1] = assay: Pharmacological Test-1: lens elasticity after instillation 3 times per day for 12 to 15 days; format: in vivo, C57BL/6J mice; details: for Lens elasticity improvement: 0.03% (w/v) solution, 2.5 μL/eye, right eye, 3 times per day for 12 to 15 days, 8-month-old mice, vs vehicle control; for lens elasticity improving effect: at a concentration of 0.03%
Procedure: The effects of compounds 1 to 4 on the lens elasticity were examined. The tests were conducted with reference to the methods described in Invest Ophthalmol Vis Sci, 57, 2851-2863, 2016.
A vehicle (aqueous solution) comprising 0.1% (w/v) of ethyl pyruvate, 0.269% (w/v) of sodium dihydrogenphosphate monohydrate (NaH2PO4.H2O), 0.433% (w/v) of di sodium hydrogenphosphate (Na2HPO4), 0.2% (w/v) of hydroxypropyl methylcellulose, 0.5% (w/v) of NaCl, 1.0% (w/v) of polyoxyl 35 castor oil (hereinafter also referred to as “CO35”), and purified water (appropriate amount) was prepared.
Each of compounds 1 to 4 was stirred with the addition of the vehicle to give a 0.03% (w/v) solution.
EV06 was stirred with the addition of the vehicle to give a 0.03% (w/v) solution. (Test method) 1) Each test sample (2.5 μL/eye) was instilled into the right eye of 8-month-old C57BL/6J mice with a Pipetman 3 times per day (around 9:00, 13:00, 17:00) for 12 to 15 days. 2) After the final instillation, the mice were euthanized by carbon dioxide inhalation, and then the eyeballs were extracted and rinsed with Hank's balanced salt solution (HESS). 3) The sclera near the optic nerve was cut with a razor, the lens was removed through the incision, and the removed lens was immersed in HESS. 4) The lens was placed on a glass slide, and an all-in-one fluorescence microscope BZ-9000 (Keyence) was used to capture an image of the lens (Image a). 5) Next, one cover glass (Corning^registered trade mark) 22×22 mm Square) was placed on the lens, and an image in which the thickness of the lens changed due to the weight was similarly captured (Image b). 6) A change in the lens diameter was calculated from the following Equation 1 wherein the lens diameter of Image a is subtracted from the lens diameter of Image b. Then, the lens elasticity improvement of each sample group compared with the vehicle control group was calculated from Equation 2 described below. The mean value of the vehicle control group was based on 5 eyes, the mean value of each of the sample groups of compounds 1 to 4 was based on 10 eyes, and the mean value of EV06 sample group was based on 9 eyes.
Change in lens diameter=Lens diameter in Image b of each test sample−Lens diameter in Image a of each test sample (Equation 1)
Lens elasticity improvement of each sample group=Mean change in lens diameter of each Test sample group−Mean change in lens diameter of Vehicle control group (Equation 2)

lens elasticity [2] = assay: Pharmacological Test-2: lens elasticity at different concentrations, instillation 3 times per day for 12 to 15 days; format: in vivo, C57BL/6J mice; details: for Lens elasticity improvement: 3 times per day for 12 to 15 days; for lens elasticity improvement compared with 1.5% EV06 group: 0.03% and 0.3% sample groups
Procedure: The effects of Compounds 1, 3, and 4 on the lens elasticity were investigated at different concentrations.
(§1) Vehicle A (aqueous solution) comprising 0.1% (w/v) of ethyl pyruvate, 0.269% (w/v) of sodium dihydrogenphosphate monohydrate (NaH2PO4.H2O), 0.433% (w/v) of disodium hydrogenphosphate (Na2HPO4), 0.2% (w/v) of hydroxypropyl methylcellulose, 0.5% (w/v) of NaCl, 0.2% (w/v) of 0035, and purified water (appropriate amount) was prepared.
as §1, with “B (emulsion)” for “A (aqueous solution)”, “CO35, 0.6% benzyl benzoate,” for “0035,”
as §1, with “Vehicle C” for “Vehicle A”, “NaCl, 1.0%” for “NaCl, 0.2%”
as §1, with “Vehicle D (emulsion)” for “Vehicle A (aqueous solution)”, “NaCl, 1.0%” for “NaCl, 0.2%”, “of CO35, 3.0% benzyl benzoate,” for “of 0035,”
A diluent (aqueous solution) comprising 0.1% (w/v) of ethyl pyruvate, 0.269% (w/v) of sodium dihydrogenphosphate monohydrate (NaH2PO4.H2O), 0.433% (w/v) of disodium hydrogenphosphate (Na2HPO4), 0.2% (w/v) of hydroxypropyl methylcellulose, 0.5% (w/v) of NaCl, and purified water (appropriate amount) was prepared.
Compound 1 was stirred with the addition of Vehicle C to prepare a 1.5% (w/v) emulsion, and the emulsion was diluted with the diluent to give a 0.3% (w/v) emulsion. Further, the resulting 0.3% (w/v) emulsion was diluted with the diluent to give a 0.03% (w/v) emulsion. Further, the resulting 0.03% (w/v) emulsion was diluted with the diluent to give a 0.003% (w/v) emulsion.
Compound 3 was stirred with the addition of Vehicle C to give a 1.5% (w/v) solution, and the resulting solution was diluted to give a 0.3% (w/v) solution. Further, the resulting 0.3% (w/v) solution was diluted with Vehicle A to give a 0.03% (w/v) solution. Further, the resulting 0.03% (w/v) solution was diluted with Vehicle A to give a 0.003% (w/v) solution.
Compound 4 was stirred with the addition of Vehicle D to give a 1.5% (w/v) emulsion, and the resulting emulsion was diluted with the diluent to prepare a 0.3% (w/v) emulsion. Further, the resulting 0.3% (w/v) emulsion was diluted with the diluent to give a 0.03% (w/v) emulsion. Further, the resulting 0.03% (w/v) emulsion was diluted with the diluent to give a 0.003% (w/v) emulsion.
EV06 was stirred with the addition of Vehicle A to give a 1.5% (w/v) solution, which was used for comparison to the samples of Compound 1 and 3.
EV06 was sonicated with the addition of Vehicle B to give a 1.5% (w/v) emulsion, which was used for comparison to Compound 4 sample.
(Test method) 1) Each test sample (2.5 μL/eye) was instilled into the right eye of 7 to 8-month-old C57BL/6J mice with a Pipetman 3 times per day (around 9:00, 13:00 and 17:00) for 12 to 15 days. 2) After the final instillation, the mice were euthanized by carbon dioxide inhalation, and then the eyeballs were extracted and rinsed with Hank's balanced salt solution (HESS). 3) The sclera near the optic nerve was cut with a razor, the lens was removed through the incision, and the removed lens was immersed in HESS. 4) The lens was placed on a glass slide, and an all-in-one fluorescence microscope BZ-9000 (Keyence) was used to capture an image of the lens (Image a). […]

[3] = 0.003% (w/v) sample, 7 to 8-month-old mice
[4] = 0.03% (w/v) sample, 7 to 8-month-old mice
[5] = 0.3% (w/v) sample, 7 to 8-month-old mice

SMILES: O=C(CCCC[C@@H]1CCSS1)OCCN1CCN(CCO)CC1 [Compound 3]
- Lens elasticity improvement (lens elasticity [1]): 49.9 μm
- lens elasticity improving effect (lens elasticity [1]): potent lens elasticity improving effect
- Lens elasticity improvement (lens elasticity [2]; [3]): 1.3 μm
- Lens elasticity improvement (lens elasticity [2]; [4]): 30.7 μm
- lens elasticity improvement compared with 1.5% EV06 group (lens elasticity [2]): equivalent to or better than 1.5% EV06 group
- Lens elasticity improvement (lens elasticity [2]; [5]): 41.8 μm

SMILES: CC(C)=CCOC(=O)CCCC[C@@H]1CCSS1 [Compound 1, 3-Methyl-2-buten-1-yl (R)-5-(1,2-dithiolan-3-yl)pentanoate]
- Lens elasticity improvement (lens elasticity [1]): 48.0 μm
- lens elasticity improving effect (lens elasticity [1]): potent lens elasticity improving effect
- Lens elasticity improvement (lens elasticity [2]; [3]): 13.0 μm
- Lens elasticity improvement (lens elasticity [2]; [4]): 37.1 μm
- lens elasticity improvement compared with 1.5% EV06 group (lens elasticity [2]): equivalent to or better than 1.5% EV06 group
- Lens elasticity improvement (lens elasticity [2]; [5]): 36.8 μm

SMILES: C[N+](C)(C)CCOC(=O)CCCC[C@@H]1CCSS1.[Cl-] [EV06, Lipoic acid choline ester, reference compound]
- Lens elasticity improvement (lens elasticity [1]): 4.0 μm
- lens elasticity improving effect (lens elasticity [1]): did not show lens elasticity improving effect
- Lens elasticity improvement (lens elasticity [2]; 1.5% (w/v) emulsion in Vehicle B, Table 4 (comparison to Compound 4)): 46.8 μm
- Lens elasticity improvement (lens elasticity [2]; 1.5% (w/v) solution in Vehicle A, Table 2 (comparison to Compound 1)): 30.8 μm
- Lens elasticity improvement (lens elasticity [2]; 1.5% (w/v) solution in Vehicle A, Table 3 (comparison to Compound 3)): 18.2 μm
